Assay results from patent US5362630A, “Isolation of pseudomonas salicylate hydroxlase and its use for the identification and quantitation of salicylate in body fluids” (Duke University, priority 1992, dated 1994).

Assays:
salicylate hydroxylase [1] = assay: Salicylate hydroxylase enzyme assay (NAD(P)H oxidation at 340 nm); assay type: biochemical, Pseudomonas
Description: Generally the reaction is carried out in a buffered solution (unless pH change or CO2 evolution is being measured). The buffer should offer near physiological conditions of pH and ionic strength for the enzyme. A potassium phosphate buffer, pH 7.6, at a concentration of 20 mM is preferred, although any pH from 6.5 to 8.9 and concentration from 5 to 100 mM is adequate. The sample may be added in any amount sufficient to trigger enzyme activity (if the salicylate is present in the sample) and the choice of sample size is discussed fully at a later time. From 1 to 40 μl per ml of total volume is convenient. Since the enzyme is generally available as a solution, it is conveniently added as such. About 10 μl of an enzyme solution containing 0.01 to 1 IU/ml is sufficient for most conditions, although the amount may be increased to speed up the reaction or decreased to slow the reaction down as needed. One IU (International Unit) is the amount of enzyme required to catalyze the disappearance of one μmole of NADH/min. NADH (or NADPH) may be present in a concentration of from about 10 to about 290 μM. Since the concentration of O2 in aqueous media is between 0.20 mM and 0.30 mM, it is not necessary to keep NAD(P)H concentration higher than […].
Enzyme Assay. The assay procedure for the enzyme and the definition of the enzyme were the same as that described in White-Stevens and Kamin (1970) except that EDTA and FAD were excluded in the assay mixture of the present work. The extinction coefficient of 6.22×10^3 M^-1 cm^-1 was used to convert the A340 change to micromoles of NADH oxidized.

salicylate hydroxylase [2] = conditions: cited from earlier work; for product inhibition of the enzyme: found by White-Stevens and Kamin
[3] = cited from earlier work

| Compound | inhibition of / interference with the enzyme activity (salicylate hydroxylase [1]) | further results |
| --- | --- | --- |
| heparin | no effect |  |
| O=C(O)c1ccccc1 [benzoate] |  | Km (salicylate hydroxylase [2]; substrate or pseudosubstrate of salicylate hydroxylase, read-out: Km of the enzyme): 2000 µM |
| O=C(O)CC(O)(CC(=O)O)C(=O)O [citrate] | do not inhibit |  |
| Oc1ccccc1O [catechol] |  | product inhibition of the enzyme (salicylate hydroxylase [2]): no product inhibition |
| O=C(O)c1ccccc1O [salicylate] |  | therapeutic range, serum or plasma level [3]: 5 to 40 mg/dL |
| O=C(O)C(=O)O [oxalate] | do not inhibit |  |
| NAD(P)^+ |  | product inhibition of the enzyme (salicylate hydroxylase [2]): no product inhibition |
| O=C(O)CN(CCN(CC(=O)O)CC(=O)O)CC(=O)O [EDTA, ethylenediaminetetracetic acid] | do not inhibit |  |
| CC(=O)Oc1ccccc1C(=O)O [aspirin, acetylsalicylic acid] |  | overdose serum/plasma level (serious poison, coma and death) [3]: over 45 mg/dl |
| CC(=O)Nc1ccc(O)cc1 [acetaminophen] | do not interfere |  |
